Like-named read-outs stand apart in the source and are kept apart here.
Columns and labels:
RSV-A2-GFP virus = assay: microbe, parasite or virus in culture; type: cell-based, Human Respiratory Syncytial Virus; conditions: Calu-1 cells, RSV-A2-GFP MOI=1.2, 96 hrs, GFP-expressing cells counted
Procedure: To set up the assay, ARF vials were thawed in a 37° C. water bath and a control compound was resuspended in assay media DMEM (Dulbecco's Modified Eagle Medium) containing 2% FBS, 100 U/ml Penicillin-Streptomycin.
GFP sequence was derived from pJTI™ R4 Dest CMV N-EmGFP pA Vector (Invitrogen) and was cloned into the intergenic sequence between wild-type RSV-A2 P and M genes using standard recombineering techniques. Recombinant RSV-A2-GFP was propagated in Hep2 cells (human cells contain HeLa marker chromosomes and were derived via HeLa contamination, ATCC CCL-23) with a Multiplicity of Infection (MOI) of 0.1. Virus was harvested 3 days after infection by collecting all culture material and then freeze-thawing the mixture for 5 minutes. Working virus stocks were generated by thawing frozen viral cultures in 37° C. water bath, which were centrifuged at 218 g for 15 min at 4° C. 1/10 of 10×SPG (Biological Industries 06-3061-01-5A) were added and then mixed. The supernatant was aliquoted, frozen in liquid nitrogen, and then transferred to a −80° C. freezer for storage. Virus titer was determined by automated plaque assay in HEp-2 cells following methods described previously (Wen Z. et al.; 2019).
Calu-1 cells were purchased from ATCC (Cat #HTB-54) and were expanded in growth media (DMEM containing 10% FBS, 100 U/ml Penicillin-Streptomycin). To make ARF, cell culture media was removed and discarded and the cell layer was briefly rinsed with PBS to remove serum. 2.5 mL of TrypLE Express solution were added and cells incubated until dislodged, to which growth media was added and the cells were resuspended by gentle pipetting. Cells were counted for concentration and viability as determined by ViCell. Cells were centrifuged at RT, 300 g for 5 minutes to pellet cells. The supernatant was gently aspirated and the pellet was flicked to loosen cells. Cells were resuspended in an appropriate volume of freezing medium (DMEM containing 10% DMSO, 10% FBS, 100 U/ml Penicillin-Streptomycin) to achieve a concentration of 5×10^6 cells/mL. 1 mL aliquots of the cell suspension were transferred to freezing vials. The vials were put into an upright container in a −80° C. freezer overnight before transferring vials to liquid nitrogen for storage
Assay ready freeze-down (ARF, generation described separately) Calu-1 cells (ATCC HTB-54) were used. Compound plates were prepared by dispensing compounds dissolved in DMSO into the wells of a 384 well Corning® 3985 plate with an ECHO acoustic dispenser and compounds were tested in 10-point serial 3-fold dilution. […] To set up the assay, ARF vial(s) were thawed in a 37° C. water bath and were then resuspended into assay media (DMEM containing 2% FBS, 100 U/ml Penicillin-Streptomycin). Cells were counted using default parameters on ViCell and diluted to 20,000 cells/mL in assay media. RSV-A2-GFP virus was added to cells at 24,000 pfu/ml (MOI=1.2) and mixed by gentle inversion. 10 μL/well of 100% DMSO was dispensed as CellTiter-Glo (CTG) assay Max_E controls wells. The cells were dispensed at 50 μL/well using Bravo with 50 μL filtered tips into compound plates. Plates were covered with MicroClime lids, loaded with 7.5 mL of assay media to minimize evaporation, and were incubated at 37° C. and 5% CO2 for 96 hrs. Following incubation, distinct, GFP-expressing cells were counted using an Acumen imaging system with appropriate settings. A same-well CTG assay was performed by adding 10 μL/well reconstituted CellTiter-Glo reagent (Promega G7573) and plates were read on PerkinElmer Envision according to manufacturer's instructions. Raw data were loaded and analyzed in ActivityBase. Antiviral IC50 and cytotoxicity CC50 values were determined using a 4 parameter logistic fit based on the Levenberg-Marquardt algorithm. Model: 205-4 Parameter Logistic.

hMPV-GFP virus = assay: microbe, parasite or virus in culture; type: cell-based, Human Metapneumovirus; conditions: VERO cells, hMPV-GFP MOI=1.25, 48 hrs, GFP-expressing cells counted
Procedure: GFP expressing rgHMPV #3 p3 was generated in Dr. Buchholz's lab (Biacchesi S. et al., J Virol. 2007 June; 81(11): 6057-6067) and propagated in VERO cells (ATCC Cat #CCL-81) with a Multiplicity of Infection (MOI) of 0.1. Virus was harvested 4 days after infection by collecting cultured material and was freeze-thaw cycled in liquid nitrogen twice. Working virus stocks were generated from thawing frozen samples in 37° C. water bath, which were centrifuged at 218 g for 15 min at 4° C. 1/10 of 10×SPG (Biological Industries 06-3061-01-5A) were added and then mixed. The supernatant was aliquoted, frozen in liquid nitrogen, and then transferred to a −80° C. freezer for storage. Virus titer was determined by performing titration test in 96-well plates and calculate approximate virus titer using GFP event/well data.
Compound plates were prepared by dispensing compounds dissolved in DMSO into wells of a 384 well Corning 3985 polystyrene flat clear bottom optical imaging microplate (202.5 nL/well) using an ECHO acoustic dispenser. Each compound was tested in 10-point serial 3-fold dilution (typical final concentrations: 40,300 nM-2 nM). […] Continuous culture of VERO cells was maintained in complete culture media (OptiMEM supplemented with 2 mM GlutaMAX™ and 100 U/ml Penicillin-Streptomycin). To set up the assay, VERO cells were trypsinized with 0.25% Trypsin-EDTA until cells were dislodged, then cells were re-suspended with 1 mL FBS. Cells were spundown at 300 g for 5 minutes and cells were washed twice with culture media and counted using default parameters on ViCell. Cells were then diluted to 100,000 cells/mL (5,000 cells/50 μL) in complete culture media+TrypLE Select (80 μL/mL). hMPV-GFP virus was added to cells at 125,000 pfu/mL (MOI=1.25) and were mixed by gentle inversion. 10 μL/well of 100% DMSO was dispensed to CellTiter-Glo (CTG) assay Max_E controls wells. Cells were dispensed at 50 μL/well using Bravo and 50 μL filtered tips into compound plates. Plates were covered with MicroClime lids and loaded with 7.5 mL of assay media to minimize evaporation. Plates were lightly shaken for 10 minutes at room temperature and then incubated at 37° C. and 5% CO2 for 48 hrs. Following incubation, distinct GFP-expressing cells were counted using an Acumen imaging system with appropriate settings. A same-well CTG assay was performed by adding 10 μL/well reconstituted CellTiter-Glo reagent (Promega G7573) and plates were read on PerkinElmer Envision according to manufacturer's instructions. Raw data were loaded and analyzed in ActivityBase. Antiviral IC50 and cytotoxicity CC50 values were determined using a 4 parameter logistic fit based on the Levenberg-Marquardt algorithm. Model: 205-4 Parameter Logistic.

[1] = human respiratory syncytial virus, Calu-1, 96 h, read-out: RSV EC50, Table I Summary of Activities for RSV
[2] = Vero, 48 h, read-out: RSV EC50, Table II Summary of Activities for hMPV
[3] = read-out: RSV EC50, Table I Summary of Activities for RSV
[4] = read-out: RSV EC50, Table II Summary of Activities for hMPV
[5] = Table I Summary of Activities for RSV, read-out: RSV EC50
[6] = Table II Summary of Activities for hMPV, read-out: RSV EC50

Row | Compound | EC50 (RSV-A2-GFP virus; [3]) | EC50 (hMPV-GFP virus; [4]) | further results
1 | Cn1nc(-c2cscn2)cc1C(=O)N1C[C@H]2[C@H](Oc3cc(C(C)(C)N)cc(-c4ccc(F)cc4)n3)[C@@]2(C)C1 (single isomer, unassigned; enantiomer 2) [Example 43B] |  |  | EC50 (RSV-A2-GFP virus; [1]): < 10 nM; EC50 (hMPV-GFP virus; [2]): > 100 nM
2 | Cn1nc(-c2ncco2)cc1C(=O)N1C[C@H]2[C@H](Oc3cc(C(C)(C)N)cc(-c4ccc(F)cc4)n3)[C@@]2(C)C1 (single isomer, unassigned; enantiomer 2) [Example 44B] | < 10 nM | 10 to 100 nM | 
3 | Cn1nc(-c2ccon2)cc1C(=O)N1C[C@H]2[C@H](Oc3cc(C(C)(C)N)cc(-c4ccc(F)cc4)n3)[C@@]2(C)C1 (single isomer, unassigned; enantiomer 2) [Example 45B] | < 10 nM | > 100 nM | 
4 | Cn1nc(-c2cscn2)cc1C(=O)N1C[C@H]2[C@H](Oc3cc(C(C)(C)N)cc(N4CCC(C)(C)CC4)n3)[C@@]2(C)C1 (single isomer, unassigned; enantiomer 2) [Example 46B] | < 10 nM | > 100 nM | 
5 | Cn1nc(-c2cscn2)cc1C(=O)N1C[C@@H]2[C@H](C1)[C@H]2Oc1cc(C2(C)CCN2)cc(-c2ccc(F)cc2)n1 (single isomer, unassigned; enantiomer 2) [Example 55B] | < 10 nM | > 100 nM | 
6 | Cn1nc(-c2cscn2)cc1C(=O)N1C[C@@H]2[C@H](C1)[C@H]2Oc1cc(C2(C)CCCN2)cc(-c2ccc(F)cc2)n1 (single isomer, unassigned; enantiomer 2) [Example 56B] | < 10 nM | > 100 nM | 
7 | Cn1nc(-c2cscn2)cc1C(=O)N1C[C@@H]2C(Oc3cc(C(C)(N)CO)cc(-c4ccc(F)cc4)n3)[C@@H]2C1 (single isomer, unassigned; enantiomer 2) [Example 57B] |  |  | EC50 (RSV-A2-GFP virus; [5]): < 10 nM; EC50 (hMPV-GFP virus; [6]): > 100 nM
8 | Cn1nc(-c2ncco2)cc1C(=O)N1C[C@@H]2C(Oc3cc(C(C)(N)CO)cc(-c4ccc(F)cc4)n3)[C@@H]2C1 (single isomer, unassigned; enantiomer 2) [Example 58B] |  |  | EC50 (RSV-A2-GFP virus; [5]): < 10 nM; EC50 (hMPV-GFP virus; [6]): > 100 nM
9 | CC(N)c1cc(O[C@H]2[C@@H]3CN(C(=O)c4cc(-c5cscn5)nn4C)C[C@@H]32)nc(-c2ccc(F)cc2)c1 (single isomer, unassigned; enantiomer 2) [Example 61B] | < 10 nM | > 100 nM | 
10 | CC(N)c1cc(O[C@H]2[C@@H]3CN(C(=O)c4cc(-c5ccon5)nn4C)C[C@@H]32)nc(-c2ccc(F)cc2)c1 (single isomer, unassigned; enantiomer 2) [Example 62B] | < 10 nM | > 100 nM | 
11 | Cn1nc(-c2cscn2)cc1C(=O)N1C[C@@H]2[C@H](C1)[C@H]2Oc1cc(C(C)(C)N)cc(C2CCC(C)(C)CC2O)n1 (single isomer, unassigned; enantiomer 2) [Example 66B] | 10 to 100 nM | > 100 nM | 
12 | Cn1nc(-c2cscn2)cc1C(=O)N1C[C@@H]2[C@H](C1)[C@H]2Oc1cc(C(C)(C)N)cc(C2CCC(C)(C)CC2O)n1 (single isomer, unassigned; enantiomer 3) [Example 66C] | 10 to 100 nM | > 100 nM | 
13 | Cn1nc(-c2cscn2)cc1C(=O)N1C[C@@H]2[C@H](C1)[C@H]2Oc1cc(C(C)(C)N)cc(C2CCC(C)(C)CC2O)n1 (single isomer, unassigned; enantiomer 4) [Example 66D] | 10 to 100 nM | > 100 nM | 
14 | Cn1nc(-c2cscn2)cc1C(=O)N1C[C@@H]2[C@H](C1)[C@H]2Oc1cc(C(C)(N)C(N)=O)cc(-c2ccc(F)cc2)n1 (single isomer, unassigned; ent-2) [Example 49A] |  |  | EC50 (RSV-A2-GFP virus; [1]): < 10 nM; EC50 (hMPV-GFP virus; [2]): > 100 nM
15 | Cn1nc(-c2cscn2)cc1C(=O)N1C[C@@H]2[C@H](C1)[C@H]2Oc1cc(C(C)(N)C(N)=O)cc(-c2ccc(F)cc2)n1 (single isomer, unassigned; ent-2) [Example 49B] | < 10 nM | > 100 nM | 
16 | Cn1nc(-c2cscn2)cc1C(=O)N1C[C@@H]2[C@H](C1)[C@H]2Oc1cc(C2(C)CNC2=O)cc(-c2ccc(F)cc2)n1 (single isomer, unassigned; ent-3) [Example 50A] |  |  | EC50 (RSV-A2-GFP virus; [1]): < 10 nM; EC50 (hMPV-GFP virus; [2]): > 100 nM
17 | Cn1nc(-c2cscn2)cc1C(=O)N1C[C@@H]2[C@H](C1)[C@H]2Oc1cc(C2(C)CNC2=O)cc(-c2ccc(F)cc2)n1 (single isomer, unassigned; ent-3) [Example 50B] | < 10 nM | > 100 nM | 
18 | Cn1nc(-c2cscn2)cc1C(=O)N1C[C@@H]2[C@H](C1)[C@H]2Oc1cc(C2(C)CCNC2=O)cc(-c2ccc(F)cc2)n1 (single isomer, unassigned; ent-3) [Example 51A] |  |  | EC50 (RSV-A2-GFP virus; [1]): < 10 nM; EC50 (hMPV-GFP virus; [2]): > 100 nM
19 | Cn1nc(-c2cscn2)cc1C(=O)N1C[C@@H]2[C@H](C1)[C@H]2Oc1cc(C2(C)CCNC2=O)cc(-c2ccc(F)cc2)n1 (single isomer, unassigned; ent-3) [Example 51B] | < 10 nM | > 100 nM | 
